What was measured:
[1] = tested on: Helicobacter pylori strains 9470, 9472 and 9474; assay: Antibacterial activity against Helicobacter pylori; format: cell-based; conditions: strains 9470, 9472 and 9474, 37° C., 3 days, slightly aerobic; result given in words only
Description: Antibacterial activity against Helicobacter pylori The antibacterial activity of the compounds of the present invention were evaluated by measuring the minimum inhibitory concentration values (MIC) of the present compounds against Helicobacter pylori strains 9470, 9472 and 9474. These strains of Helicobacter pylori were incubated for 4 days on a plate medium. The medium was prepared by dissolving brain heart infusion agar (Product of DIFCO) in a defined amount of distilled water, by sterilization in an autoclave, injecting horse blood (Product of Nihon Seibutsu Zairyo Co.) into each plate for the medium to contain 7% of the blood and by solidifying. Under slightly aerobic conditions, Helicobacter pylori cultivated at 37° C. for 4 days was suspended in a physiological saline solution for its inocular size to be about 10^8 CFU/ml. The suspension was diluted 100 times, and about 10 μl of the diluted suspension was inoculated on a medium for MIC determination. The medium for MIC determination used had the same compounds as those for preculture. […] In a similar way to the preculture, Helicobacter pylori was cultivated at 37° C. for 3 days under slightly aerobic conditions. […] The minimum concentration which gave no bacterial growth was regarded as MIC of the compound of the present invention.

gastric acid secretion = assay: Gastric acid secretion activity test using pyloric ligation in rats (Shay rat method); format: in vivo; conditions: male SD rats, 20 mg/kg injected into the duodenal region, 4 hours, result given in words only
Description: Gastric acid secretion activity test using pyloric ligation in rats (Shay rat method)
Pyloric ligation was conducted based on the method of Shay et al. [Gastroenterology, 5, 43 (1945)]. Male rats of SD strain were fasted for 24 hours; their abdomens were sectioned during anesthesia under ether. The duodenal and pyloric regions were exposed and the latter was ligated. A solution of a test compound (10 mg/ml) prepared by use of 1.5w parts of dimethylacetamide, 68.5% parts of polyethyleneglycol (PEG-400) and 30% parts of physiological saline solution, was injected into the duodenal region for the dose to be 20 mg/kg by use of a 1-ml syringe and an injection needle (26G). After injection of the test compound, the abdominal region was sutured. The animals were allowed to a stand for 4 hours without feeding food and water and then sacrified with carbon dioxide gas. The stomach was excised and gastric juice was gathered. The gastric juice sample was centrifuged (4° C., 2500 rpm, 15 minutes). The amount of the supernatant was measured to be as the gastric secretion. The acidity of the gastric juice was determined by the amount (ml) of 0.01 N sodium hydroxide solution required for titration of 0.1 ml of the supernatant to pH 7.0 by use of-an auto-titrating apparatus. The value of gastric acid secretion was calculated from the value of gastric secretion and the acidity of gastric juice. The inhibiting rate was obtained from the values of gastric acid secretion of the control group and of the administered group.

Row | minimum inhibitory concentration (MIC) against Helicobacter pylori [1] | Compound | inhibiting rate of gastric acid secretion (gastric acid secretion)
1 | excellent antibacterial activity | Cc1c(C)n(C/C=C/c2ccccc2)c2c(OCc3ccccc3)nncc12 [Example 6, 7-Benzyloxy-2,3-dimethyl-1-(3-phenyl-2-propenyl)pyrrolo[2,3-d]pyridazine] | 
2 | excellent antibacterial activity | C=CCn1c(C)c(C)c2cnnc(OCc3cccc(F)c3)c21 [Example 8, 7-(3-Fluorobenzyloxy)-2,3-dimethyl-1-(2-propenyl)pyrrolo[2,3-d]pyridazine] | 
3 | excellent antibacterial activity | Cc1c(C)n(CC(F)(F)F)c2c(OCc3ccccc3)nncc12 [Example 15, 7-Benzyloxy-2,3-dimethyl-1-(2,2,2-trifluoroethyl)pyrrolo[2,3-d]pyridazine] | 
4 | excellent antibacterial activity | Cc1c(C)n(CCF)c2c(OCc3ccccc3)nncc12 [Example 18, 7-Benzyloxy-1-(2-fluoroethyl)-2,3-dimethylpyrrolo[2,3-d]pyridazine] | 
5 | excellent antibacterial activity | Cc1c(C)n(CCCF)c2c(OCc3ccccc3)nncc12 [Example 19, 7-Benzyloxy-1-(3-fluoropropyl)-2,3-dimethylpyrrolo[2,3-d]pyridazine] | 
6 | excellent antibacterial activity | Cc1c(C)n(C/C=C/c2ccccc2)c2c(OCc3ccc(F)cc3)nncc12 [Example 24, 7-(4-Fluorobenzyloxy)-2,3-dimethyl-1-(3-phenyl-2-propenyl)pyrrolo[2,3-d]pyridazine] | 
7 | excellent antibacterial activity | C=CCn1c(C)c(CC)c2cnnc(OCc3ccccc3)c21 [Example 27, 7-Benzyloxy-3-ethyl-2-methyl-1-(2-propenyl)-6pyrrolo[2,3-d]pyridazine] | 
8 | excellent antibacterial activity | C/C=C\Cn1c(C)c(C)c2cnnc(OCc3ccc(F)cc3)c21 [Example 29, 1-(2-Butenyl)-7-(4-fluorobenzyloxy)-2,3-dimethylpyrrolo[2,3-d]pyridazine] | 
9 | excellent antibacterial activity | C=CCn1c(C)c(C)c2cnnc(SCc3ccc(F)cc3)c21 [Example 34, 7-(4-Fluorobenzylthio)-2,3-dimethyl-1--(2-propenyl)ipyrrolo[2,3-d]pyridazine] | 
10 | excellent antibacterial activity | C=C=Cn1c(C)c(C)c2cnnc(OCc3ccccc3)c21 [Example 45, 7-Benzyloxy-2,3-dimethyl-1-(propane-1,2-dienyl)pyrrolo[2,3-d]pyridazine] | 
11 | excellent antibacterial activity | CC=CCn1c(C)c(C)c2cnnc(SCc3c(F)cccc3Cl)c21 [Example 52, 1-(2-Butenyl)-7-(2-chloro-6-fluorobenzylthio)-2,3-dimethylpyrrolo[2,3-d]pyridazine] | 
12 | excellent antibacterial activity | CC=CCn1c(C)c(CC)c2cnnc(OCc3ccc(F)cc3)c21 [Example 56, 1-(2-Butenyl)-3-ethyl-7-(4-fluorobenzyloxy)-2-methylpyrrolo[2,3-d]pyridazine] | 

Second part, the compound before the results:

Row | Compound | minimum inhibitory concentration (MIC) against Helicobacter pylori [1] | inhibiting rate of gastric acid secretion (gastric acid secretion)
13 | CC(C)=CCn1c(C)c(C)c2cnnc(OCc3ccccc3)c21 [Example 2, 7-Benzyloxy-2,3-dimethyl-1-(3-methyl-2-butenyl)pyrrolo[2,3-d]pyridazine] | excellent antibacterial activity | 
14 | C=CCn1c(C)c(C)c2cnnc(OCc3ccccc3)c21 [Example 3, 7-Benzyloxy-2,3-dimethyl-1-(2-propenyl)pyrrolo[2,3-d]pyridazine] | excellent antibacterial activity | excellent activity
15 | CC=CCn1c(C)c(C)c2cnnc(OCc3ccccc3)c21 [Example 5, 7-Benzyloxy-1-(2-butenyl)-2,3-dimethylpyrrolo[2,3-d]pyridazine] | excellent antibacterial activity | excellent activity
16 | C=CCn1c(C)c(C)c2cnnc(OCc3ccccc3F)c21 [Example 10, 7-(2-Fluorobenzyloxy)-2,3-dimethyl-1-(2-propenyl)nvrrolo[2,3-d]pyridazine] | excellent antibacterial activity | 
17 | C=Cn1c(C)c(C)c2cnnc(OCc3ccccc3)c21 [Example 13, 7-Benzyloxy-2,3-dimethyl-1-vinylpyrrolo[2,3-d]pyridazine] | excellent antibacterial activity | 
18 | Cc1c(C)n(CC(F)F)c2c(OCc3ccccc3)nncc12 [Example 20, 7-Benzyloxy-1-(2,2-difluoroethyl)-2,3-dimethylpyrrolo[2,3-d]pyridazine] | excellent antibacterial activity | 
19 | Cc1c(C)n(C2CCCCC2)c2c(OCc3ccccc3)nncc12 [Example 23, 7-Benzyloxy-1-cyclohexyl-2,3-dimethylpyrrolo[2,3-d]pyridazine] | excellent antibacterial activity | 
20 | C=CCn1c(C)c(C)c2cnnc(OCc3ccc(C(F)(F)F)cc3)c21 [Example 25, 2,3-Dimethyl-1-(2-propenyl)-7-(4-trifluoromethylbenzyloxy)pyrrolo[2,3-d]pyridazine] | excellent antibacterial activity | 
21 | C=C(C)Cn1c(C)c(C)c2cnnc(OCc3ccc(F)cc3)c21 [Example 26, 7-(4-Fluorobenzyloxy)-2,3-dimethyl-1-(2-methyl-2-propenyl)pyrrolo[2,3-d]pyridazine] |  | excellent activity
22 | CC=CCn1c(C)c(C)c2cnnc(OCc3cccnc3)c21 [Example 32, 1-(2-Butenyl)-2,3-dimethyl-7-(3-pyridylmethyloxy)pyrrolo[2,3-d]pyridazine] |  | excellent activity
23 | C/C=C/Cn1c(CC)c(C)c2cnnc(OCc3ccc(F)cc3)c21 [Example 33, 1-(2-Butenyl)-2-ethyl-7-(4-fluorobenzyloxy)-3-methylpyrrolo[2,3-d]pyridazine] |  | excellent activity
24 | Cc1c(C)n(CC2CCCCC2)c2c(OCc3ccc(F)cc3)nncc12 [Example 37, 1-Cyclohexylmethyl-7-(4-fluorobenzyloxy)-2,3-dimethylpyrrolo[2,3-d]pyridazine] |  | excellent activity
25 | CC=CCn1c(C)c(C)c2cnnc(OCc3c(F)cccc3Cl)c21 [Example 40, 1-(2-Butenyl)-7-(2-chloro-6-fluorobenzyloxy)-2,3-dimethylpyrrolo[2,3-d]pyridazine] |  | excellent activity
26 | Cc1c(C)n(CC=C(Cl)Cl)c2c(OCc3ccccc3)nncc12 [Example 41, 7-Benzyloxy-1-(3,3-dichloro-2-propenyl)-2,3-dimethylpyrrolo[2,3-d]pyridazine] |  | excellent activity
27 | C#CCn1c(C)c(C)c2cnnc(OCc3ccccc3)c21 [Example 42, 7-Benzyloxy-2,3-dimethyl-1-(2-propynyl)pyrrolo[2,3-d]pyridazine] |  | excellent activity
28 | CC=CCn1c(C)c(C)c2cnnc(SCc3ccc(F)cc3)c21 [Example 50, 1-(2-Butenyl)-7-(4-fluorobenylthio)-2,3-dimethylpyrrolo[2,3-d]pyridazine] | excellent antibacterial activity | 
29 | CC=CCn1c(C)c(C)c2cnnc(SCc3ccc(F)cc3F)c21 [Example 51, 1-(2-Butenyl)-7-(2,4-difluorobenzylthio)-2,3-dimethylpyrrolo[2,3-d]pyridazine] | excellent antibacterial activity | 
30 | CC=CCn1c(C)c(C)c2cnnc(CCc3ccc(F)cc3)c21 [Example 62, 1-(2-Butenyl)-7-(4-fluorophenethyl)-2,3-dimethylpyrrolo[2,3-d]pyridazine] |  | excellent activity
31 | Cc1c(C)n(CC2CC2C)c2c(CCc3ccccc3)nncc12 (stereo not drawn) [Example 68, 2,3-Dimethyl-1-(2-methylcyclopropylmethyl)-7-phenethylpyrrolo[2,3-d]pyridazine] |  | excellent activity

Reference: patent publication US6063782A, “Pyrrolopyridazine derivatives” (Sankyo Company, Limited, priority 1994, dated 2000)
